Where a name gives a salt, the structure may show the parent alone.
What was measured:
[1] = biological target: T1, σ receptors (Cavia porcellus, UniProt Q60492); assay: Specific binding to σ receptors, (+)[^3 H]3-PPP displacement; parameters: species or system guinea-pig; settings: for IC50: guinea-pig total brain membrane, 2 nM (+)[^3 H]3-PPP, 90 min, 25° C., pH 8.5
T1 construct: membrane corresponding to 40 mg of guinea-pig total brain; from tissue; host or cells: guinea-pig total brain membranes
Method: (§1) Thus, total binding of ligand to membranes was attained. Non-specific binding was then determined by adding a micromolar concentration of unlabelled 3-PPP.

[2] = biological target: D2 receptors (Rattus norvegicus, UniProt P61169); assay: Specific binding to D2 receptors, [^3 H]spiperone displacement
[3] = test system: Male Sprague-Dawley rats; assay: Stereotypy inhibition test (apomorphine, rats); format: in vivo; settings: Rattus norvegicus, ip; intraperitoneal; apomorphine 1.5 mg/kg subcutaneously after 30 min; scored 40-120 min
Method: Stereotypy inhibition test: Male Sprague-Dawley rats, weighing 200-300 g were used. The animals were weighed and then placed in individual transparent boxes. At time 0 the compounds to be tested were administered intraperitoneally. 0.25% agar was used as vehicle. […] At 40, 50, 60, 90 and 120 min, stereotypy was scored from (-) to (+++) according to the following criteria: (-) absence of stereotypy or any abnormal movement; (+) presence of slight stereotyped movements of the head and intermittent sniffing; (++) intense movements of the head, mild licking interspersed with sniffing; and (+++) intense licking and/or gnawing. Results are expressed as ED50 in mg/kg for a better quantification.

[4] = in vivo
[5] = test system: σ receptors; settings: B. L. Largent et al, Eur. J. Pharmacol., 155, 345-7, 1988; cited from earlier work
[6] = Irwin test (behavioural and neurological undesirable effects); settings: observed at first dose causing undesirable effects
[7] = test system: σ receptors; assay: Specific binding to σ receptors, (+)[^3 H]3-PPP displacement; parameters: species or system guinea-pig
Method: as §1

T1 sequence (Q60492 whole entry): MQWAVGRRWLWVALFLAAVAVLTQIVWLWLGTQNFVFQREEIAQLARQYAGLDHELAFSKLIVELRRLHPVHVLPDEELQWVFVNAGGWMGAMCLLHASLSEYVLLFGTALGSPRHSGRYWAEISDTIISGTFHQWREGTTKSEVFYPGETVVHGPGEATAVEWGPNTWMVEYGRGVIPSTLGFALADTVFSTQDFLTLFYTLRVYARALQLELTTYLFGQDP
Sequence of D2 receptors (P61169 whole entry): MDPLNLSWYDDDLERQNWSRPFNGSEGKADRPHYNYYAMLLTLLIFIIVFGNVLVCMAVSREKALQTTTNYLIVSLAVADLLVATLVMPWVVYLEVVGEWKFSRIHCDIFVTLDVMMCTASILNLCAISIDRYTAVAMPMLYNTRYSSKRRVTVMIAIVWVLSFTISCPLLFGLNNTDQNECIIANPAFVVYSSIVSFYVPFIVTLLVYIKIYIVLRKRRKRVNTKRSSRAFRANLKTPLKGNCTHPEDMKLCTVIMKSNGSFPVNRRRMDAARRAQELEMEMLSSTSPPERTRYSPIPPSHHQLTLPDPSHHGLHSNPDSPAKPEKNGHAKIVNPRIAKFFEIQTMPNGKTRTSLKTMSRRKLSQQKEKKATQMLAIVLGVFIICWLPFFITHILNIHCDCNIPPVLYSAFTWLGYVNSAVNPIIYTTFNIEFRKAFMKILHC

IC50 [1] [nM]	IC50 [2] [nM]	Structure (SMILES)	further results
0.52	678	CN(CCCC(=O)c1ccc(F)cc1)CCN(C)Cc1ccc(F)cc1 [Example 7, 1-(p-fluorophenyl)-4-[N-(2-(N'-(p-fluorobenzyl)-N'-methylamino)ethyl)-N-methylamino]-1-butanone dihydrochloride]	Binding to σ receptors (in words) [1]: more potent than Haloperidol; Activity on D2 receptors (in words) [2]: poorly active on D2 receptors
83	2350	CN(CCCC(c1ccc(F)cc1)c1ccc(F)cc1)CCN(C)Cc1ccc(F)cc1 [Example 9, N-(4,4-bis(p-fluorophnyl)butyl)-N,N'-dimethyl-N'-(p-fluorobenzyl)-1,2-ethanediamine dihydrochloride]	
2.79	7810	CN(CCCC(O)c1ccc(F)cc1)CCN(C)Cc1ccc(F)cc1 (centres unmarked) [Example 8, 1-(p-fluorophenyl)-4-[N-(2-(N'-(p-fluorobenzyl)-N'-methylamino)ethyl)-N-methanlamino]-1-butanol dihydrochloride]	
14.6	1500	CN(CCCC(=O)c1ccc(F)cc1)CCN(C)c1ncccn1 [Example 12, 1-(p-fluorophenyl)-4-[N-[2-(N'-(2-pyrimidinyl)-N'-methyl-amino)ethyl]-N-methylamino]-1-butanone disulphate]	Relative selectivity ([7]; D2 /σ ratio relative to Haloperidol): 21.5; Selectivity D2 /σ ([7]; ratio of IC50 D2 (rat striatum) to IC50 σ (guinea-pig brain)): 103

The next lines start with the compound.

Structure (SMILES)	IC50 [1] [nM]	IC50 [2] [nM]	further results
CN(CCCC(O)c1ccc(F)cc1)CCN(C)Cc1ccccc1 (centres unmarked) [Example 6, 4-[N-(2-(N'-benzyl, N'-methylamino)ethyl) -N-methylamino]-1-(p-fluorophenyl)-1-butanol dihydrochloride]	29	81800	
CN(CCCC(=O)c1ccc(F)cc1)CCN(C)Cc1ccccc1 [Example 5, 4-[N-(2-(N'-benzyl,N'-methylamino)ethyl)-N-methylamino]-1-(p-fluorophenyl)-1-butanone dihydrochloride]	2.01	410	
O=C(CCCN1CCC(O)(c2ccc(Cl)cc2)CC1)c1ccc(F)cc1 [Haloperidol]			ED50 [3]: 0.4 mg/kg; First dose causing behavioural and neurological undesirable effects [4]: 10 mg/kg; Receptor action (literature, in words) [5]: acts on both σ and D2 receptors; Side effects [6]: Hypothermia, Catalepsy.

Source: US5561135A, “N,N,N',N'-tetrasubstituted-1,2-ethanediamine derivative compounds” (Ferrer Internacional, S.A., priority 1993, dated 1996)
